Laboratory results published in patent publication US10138225B2 (Achillion Pharmaceuticals, Inc., priority 2015, dated 2018).

Biological target: T1, Human Factor D (Homo sapiens, UniProt P00746)
T1 construct: purified from human serum; purchased Complement Technology, Inc; host or cells: human serum (natural protein, not recombinant)
Assay: Human Factor D Assay
Assay type: biochemical
Settings: Table 1; Factor D 80 nM, substrate Z-L-Lys-SBzl; read-out: IC50
Experimental: Human Factor D (purified from human serum, Complement Technology, Inc.) at 80 nM final concentration is incubated with test compound at various concentrations for 5 minutes at room temperature in 50 mM Tris, 1M NaCl, pH 7.5. A synthetic substrate Z-L-Lys-SBzl and DTNB (Ellman's reagent) are added to final concentrations of 100 μM each. Absorbance at 405 nm (A405) is recorded at 30 second intervals for 30 minutes using a microplate spectrophotometer. IC50 values are calculated by nonlinear regression of complement Factor D reaction rates as a function of test compound concentration.

T1 sequence (P00746 26-253): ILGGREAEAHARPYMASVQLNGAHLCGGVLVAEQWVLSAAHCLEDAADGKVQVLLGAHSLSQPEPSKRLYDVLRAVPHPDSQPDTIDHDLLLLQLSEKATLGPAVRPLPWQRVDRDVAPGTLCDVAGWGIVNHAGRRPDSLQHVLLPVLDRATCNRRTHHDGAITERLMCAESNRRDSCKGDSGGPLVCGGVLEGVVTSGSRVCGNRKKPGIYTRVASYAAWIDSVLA

SMILES | IC50 [nM]
CC(=O)c1cn(CC(=O)N2C[C@H](F)C[C@H]2C(=O)NCc2cccc(Cl)c2F)c2ccc(C(=O)NC3CC3)cc12 [Compound 41, 3-acetyl-1-(2-((2S,4R)-2-(3-chloro-2-fluorobenzylcarbamoyl)-4-fluoropyrrolidin-1-yl)-2-oxoethyl)-N-cyclopropyl-1H-indole-5-carboxamide] | < 1000
NC(=O)c1nn(CC(=O)N2C[C@H](F)C[C@H]2C(=O)Nc2cccc(-c3ccccc3Cl)c2F)c2ccc(NC(=O)NCc3ncccn3)cc12 [Compound 32, 1-(2-((2S,4R)-2-(2′-chloro-2-fluorobiphenyl-3-ylcarbamoyl)-4-fluoropyrrolidin-1-yl)-2-oxoethyl)-5-(3-(pyrimidin-2-ylmethyl)ureido)-1H-indazole-3-carboxamide] | < 1000
NC(=O)c1nn(CC(=O)N2C[C@H](F)C[C@H]2C(=O)Nc2cccc(Br)n2)c2ccc(NC(=O)N3CCCC(F)(F)C3)cc12 [Compound 33, 1-(2-((2S,4R)-2-(6-bromopyridin-2-ylcarbamoyl)-4-fluoropyrrolidin-1-yl)-2-oxoethyl)-5-(3,3-difluoropiperidine-1-carboxamido)-1H-indazole-3-carboxamide] | < 1000
CC(=O)c1cn(CC(=O)N2[C@@H]3C[C@@H]3C[C@H]2C(=O)N[C@H](C)c2cccc(Cl)c2F)c2ccc(NC(=O)NC3CC3)cc12 [Compound 5, (1R,3S,5R)-2-(2-(3-acetyl-5-(3-cyclopropylureido)-1H-indol-1-yl)acetyl)-N-((R)-1-(3-chloro-2-fluorophenyl)ethyl)-2-azabicyclo[3.1.0] hexane-3-carboxamide] | < 1000
NC(=O)c1nn(CC(=O)N2C[C@H](F)C[C@H]2C(=O)Nc2cccc(-c3ccccc3Cl)c2F)c2ccc(NC(=O)N3CCC(F)(F)C3)cc12 [Compound 30, 1-(2-((2S,4R)-2-(2′-chloro-2-fluorobiphenyl-3-ylcarbamoyl)-4-fluoropyrrolidin-1-yl)-2-oxoethyl)-5-(3,3-difluoropyrrolidine-1-carboxamido)-1H-indazole-3-carboxamide] | < 1000
CC(=O)c1cn(CC(=O)N2C[C@H](F)C[C@H]2C(=O)NCc2cccc(Cl)c2F)c2ccc(NC(=O)NCc3ncccn3)cc12 [Compound 8, (2S,4R)-1-(2-(3-acetyl-5-(3-(pyrimidin-2-ylmethyl)ureido)-1H-indol-1-yl)acetyl)-N-(3-chloro-2-fluorobenzyl)-4-fluoropyrrolidine-2-carboxamide] | < 1000

Same assay, conditions: Table 2; Factor D 80 nM, substrate Z-L-Lys-SBzl; read-out: IC50

IC50 [nM] | SMILES
< 1000 | CNC(=O)c1cc2c(s1)c(C(N)=O)nn2CC(=O)N1C[C@H](F)C[C@H]1C(=O)Nc1cccc(-c2ccccc2Cl)c1F [Compound 58]
< 1000 | CN(C)C(=O)c1cc2c(s1)c(C(N)=O)nn2CC(=O)N1C[C@H](F)C[C@H]1C(=O)Nc1cccc(-c2ccccc2Cl)c1F [Compound 62, 1-(2-((2S,4R)-2-(2′-chloro-2-fluorobiphenyl-3-ylcarbamoyl)-4-fluoropyrrolidin-1-yl)-2-oxoethyl)-N5,N5-dimethyl-1H-thieno[3,2-c]pyrazole-3,5-dicarboxamide]
< 1000 | NC(=O)c1nn(CC(=O)N2C[C@H](F)C[C@H]2C(=O)Nc2cccc(-c3ccccc3Cl)c2F)c2cc(C(=O)NC3CC3)sc12 [Compound 57, 1-(2-((2S,4R)-2-(2′-chloro-2-fluorobiphenyl-3-ylcarbamoyl)-4-fluoropyrrolidin-1-yl)-2-oxoethyl)-N5-cyclopropyl-1H-thieno[3,2-c]pyrazole-3,5-dicarboxamide]

Same assay, conditions: Table 3; factor D inhibition assay; read-out: IC50 (Stars)

IC50 [nM] | SMILES
1000 to 10000 | CC(=O)c1nn(CC(=O)N2[C@H](C(=O)Nc3cccc(Br)n3)C[C@@]3(C)C[C@@H]23)c2cc(C(=O)NS(=O)(=O)C3CC3)ccc12 [Compound 234, 3-acetyl-1-(2-((1R,3S,5R)-3-((6-bromopyridin-2-yl)carbamoyl)-5-methyl-2-azabicyclo [3.1.0]hexan-2-yl)-2-oxoethyl)-N-(cyclopropylsulfonyl)-1H-indazole-6-carboxamide]
